The values that follow come from patent publication US20250064805A1, “Methods of Treating Myeloproliferative Disorders Based on BTK Occupancy & Resynthesis Rate” (Telios Pharma Inc., priority 2022, published 2025).

The term half-life denotes the time in which the quantity being followed falls by half. A lower half-life goes with rapid decline.

Series [1] in a line: Half-life of Compound 128 in vivo. As for the experimental part:
In myeloproliferative disorders, the de novo resynthesis rate of BTK following covalent inhibition by Compound 128 is greater than the de novo BTK resynthesis rate in B-cell malignancies. […] The short half-life of Compound 128 (1 to 2 hours in vivo), coupled with the faster BTK turnover in myelofibrosis in particular, and myeloproliferative disorders in general, requires higher BID dosing. Thus, a 300 mg BID dose in subjects with myelofibrosis should ensure maximal BTK occupancy at trough levels of this drug.

The next series deals with T1, BTK (Homo sapiens, UniProt Q06187).
T1 construct: endogenous in cells; host or cells: RAMOS B cells, HEL-92, MV-411, MOLM-13, THP-1, UKE-1, primary myeloid cells/monocytes from a healthy donor, primary cells from AML patients
Description: BTK resynthesis rate in cells after saturating exposure to and washout of Compound 128 (free BTK by ELISA). The format is cell-based. The method, then: Various cell types and tissues show different rates of BTK synthesis (see FIG. 1). Cells were cultured with a saturating concentration of Compound 128 to occupy all BTK protein (0% free BTK). This was followed by a washout of Compound 128 and culturing for up to 48 hours with no BTK inhibitor to allow the cells to synthesize new BTK protein. The rate of BTK protein synthesis was determined by measuring the free BTK by ELISA at different time points. RAMOS B cells resynthesized BTK at a rate of only 26% per day, while Hel-92 and MV-411 cells resynthesized BTK at a rate of over 100% per day. […] The rate of BTK resynthesis in naïve AML patients was roughly 30% per day, with low inter-patient variability.
BTK resynthesis in each cell type was measured as described in Example 1. The left graph (see FIG. 2) depicts the BTK resynthesis rate in monocytes from a normal individual following a two hour exposure to Compound 128. The BTK resynthesis rate was determined to be 61% per day in normal monocytes. The right graph (see FIG. 2) depicts the BTK resynthesis rate in the presence of BTK inhibitor Compound 128 in two different cell lines.
BTK resynthesis was measured in additional AML and MF cell types as described in Example 1 following a one hour exposure to Compound 128 (see FIG. 3). MOLM-13 cells resynthesized BTK at a rate of only 21% per day, while THP-1 cells resynthesized BTK at a rate of 84% per day and UKE-1 cells resynthesized BTK at a rate of over 100% per day.

T1 sequence (Q06187 whole entry): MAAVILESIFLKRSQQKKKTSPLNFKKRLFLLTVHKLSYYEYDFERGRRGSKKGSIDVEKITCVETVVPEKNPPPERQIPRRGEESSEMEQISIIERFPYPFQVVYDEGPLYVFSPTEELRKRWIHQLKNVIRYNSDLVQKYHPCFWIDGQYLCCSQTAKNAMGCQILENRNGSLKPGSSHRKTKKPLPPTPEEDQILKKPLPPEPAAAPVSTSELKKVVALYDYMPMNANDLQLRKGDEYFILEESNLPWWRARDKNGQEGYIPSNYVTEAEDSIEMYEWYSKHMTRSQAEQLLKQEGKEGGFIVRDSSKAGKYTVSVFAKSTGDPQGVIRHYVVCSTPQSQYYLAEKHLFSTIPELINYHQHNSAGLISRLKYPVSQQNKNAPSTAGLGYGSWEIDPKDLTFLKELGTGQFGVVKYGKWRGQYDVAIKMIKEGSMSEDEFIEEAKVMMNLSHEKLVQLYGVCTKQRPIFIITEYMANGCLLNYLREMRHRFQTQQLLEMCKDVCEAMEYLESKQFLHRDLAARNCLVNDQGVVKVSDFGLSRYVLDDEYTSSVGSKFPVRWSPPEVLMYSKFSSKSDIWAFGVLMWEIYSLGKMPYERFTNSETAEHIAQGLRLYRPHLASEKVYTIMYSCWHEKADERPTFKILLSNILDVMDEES

With `C=CC(=O)N1CCC(F)(CNc2ncnc(N)c2-c2ccc(Oc3ccccc3)cc2)CC1` [Compound 128, 1-(4-(((6-amino-5-(4-phenoxyphenyl)pyrimidin-4-yl)amino)methyl)-4-fluoropiperidin-1-yl)prop-2-en-1-one], the half-life in series [1] was in the range of 1 to 2 h. Besides, the figures for the “initial BTK resynthesis rate” value at BTK (HEL-92 (myelofibrosis) cells) and at BTK (MV-411 cells (AML)) were 43 % per day and 83 % per day, respectively. Further, at BTK (HEL-92 (myelofibrosis) cells, repeated exposure), the “BTK resynthesis rate after repeated exposure” value turned out to be 28 % per day. Moreover, the “change of BTK resynthesis rate after treatment” value on BTK (Hel-92 cells, after 4 days of treatment) is “decreased BTK resynthesis rate”; at BTK (MV-411 cells, after 7 days of treatment), “decreased BTK resynthesis rate”. In addition, the BTK resynthesis rate result on BTK (Hel-92 cells, saturating concentration, washout, culture up to 48 hours) is listed as “over 100 % per day”; on BTK (MOLM-13 cells, one hour exposure) it was 21 % per day; on BTK (MV-411 cells, saturating concentration, washout, culture up to 48 hours), “over 100 % per day”; at BTK (RAMOS B cells, saturating concentration, washout, culture up to 48 hours), 26 % per day; at BTK (THP-1 cells, one hour exposure), 84 % per day; on BTK (UKE-1 cells, one hour exposure) it was “over 100 % per day”. Moreover, the BTK resynthesis rate on BTK (culture of primary myeloid cells from a healthy donor) is on record as 67 % per day; on BTK (cultures of primary cells from patients with relapsed AML), 57 % per day; on BTK (monocytes from a normal individual, two hour exposure) it was 61 % per day; at BTK (naïve AML patients) it was “roughly 30 % per day”. On BTK (MV-411 cells (AML), continued exposure for seven days), the “BTK resynthesis rate after continued exposure” value was 44 % per day. Further, the “de novo BTK resynthesis rate, HEL-92 cells compared to Ramos B-lymphoblastoid cell line” value on BTK (following covalent inhibition by Compound 128) was “four-fold higher”.
